We go through two molecules from US7112601B2, “Cycloalkyl heterocycles for treating hepatitis C virus” (priority 2003, dated 2006).

For one assay, the target named is T1, HCV NS5B RdRp (Hepatitis C virus genotype 1b, UniProt Q9WMX2).
T1 construct: The protein was expressed with an 18 amino acid C-terminal truncation to enhance the solubility; made in house; host or cells: E. coli BL21(DE3)
Put plainly: HCV NS5B RdRp enzyme inhibition assay. Type of assay: biochemical. How it is done: HCV NS5B RdRp cloning, expression, and purification. The cDNA encoding the NS5B protein of HCV, genotype 1b, was cloned into the pET21a expression vector. The protein was expressed with an 18 amino acid C-terminal truncation to enhance the solubility. The E. coli competent cell line BL21(DE3) was used for expression of the protein. Cultures were grown at 37° C. for ˜4 hours until the cultures reached an optical density of 2.0 at 600 nm. The cultures were cooled to 20° C. and induced with 1 mM IPTG. Fresh ampicillin was added to a final concentration of 50 ug/ml and the cells were grown overnight at 20° C.
Cell pellets (3L) were lysed for purification to yield 15–24 mgs of purified NS5B. The lysis buffer consisted of 20 mM Tris-HCl, pH 7.4, 500 mM NaCl, 0.5% triton X-100, 1 mM DTT, 1 mM EDTA, 20% glycerol, 0.5 mg/ml lysozyme, 10 mM MgCl2, 15 ug/ml deoxyribonuclease I, and Complete TM protease inhibitor tablets (Roche). After addition of the lysis buffer, frozen cell pellets were resuspended using a tissue homogenizer. To reduce the viscosity of the sample, aliquots of the lysate were sonicated on ice using a microtip attached to a Branson sonicator. The sonicated lysate was centrifuged at 100,000×g for 1 hr at 4° C. and filtered through a 0.2 μm filter unit (Corning).
The protein was purified using three sequential chromatography steps: Heparin sepharose CL-6B, polyU sepharose 4B, and Hitrap SP sepharose (Pharmacia). The chromatography buffers were identical to the lysis buffer but contained no lysozyme, deoxyribonuclease I, MgCl2 or protease inhibitor and the NaCl concentration of the buffer was adjusted according to the requirements for charging the protein onto the column. Each column was eluted with a NaCl gradient which varied in length from 5–50 column volumes depending on the column type. After the final chromatography step, the resulting purity of the enzyme is >90% based on SDS-PAGE analysis. The enzyme was aliquoted and stored at −80° C.
HCV NS5B RdRp enzyme assay. HCV RdRp genotype 1b assays were run in assay buffer composed of 20 mM Tris-HCl, pH 7.5, 2.5 mM KCl, 5 mM MgCl2, 1 mM DTT, 1.6 U RNAse inhibitor (Promega N2515), in 96 well plates (Falcon 3918). All compounds were serially diluted in DMSO and diluted further in assay buffer such that the final concentration of DMSO in the assay was 2%. Compounds were serially diluted (3-fold each time) for a 7 point inhibition analysis. HCV RdRp genotype 1b enzyme was used at a final concentration of 28 nM. A polyA template was used at 28 nM, and the oligo-dT12-18 primer was used at 840 nM final concentration. Preannealed primer and template were obtained commercially (Amersham 27-787802). ^3H-UTP was used at 0.125 μCi (1 μM total UTP). Reaction was initiated by the addition of enzyme. Reactions were incubated at 30° C. for 45 min, and stopped by adding 30 ul of 20% ice cold TCA. Plates were chilled for 30 minutes and harvested onto Unifilter-96, GF/B plates (Packard, 6005177) using a Packard FilterMate Cell Harvester. The harvest plates were prewashed 3 times, 200 ul/well, with 100 mM NaPPi. Harvested filters were washed 30 times, 200 ul/well, with distilled water followed by ethanol. Filter plates were dried, and 30 ul/well microscint-20 was added. Plates were read on a Packard Top Count NXT.
The IC50 values for compounds were determined using […] different [I], combined with 7 nM enzyme, 800 ng of the template-primer polyC/oligoG12 (1:5 molar ratio), and 0.7 uM of ^3H GTP containing 1 uCi. The observed fractional activity (fa=vi/vo) was used in the equation IC50=[I]/(1/fa-1) to determine a single point IC50 value. Typically, the single point IC50 values derived from [I] that produced fractional activities in the range of 0.1 to 0.8 relative to the uninhibited control were averaged to calculate the IC50 value for each compound.

The test system of another assay is HCV. Conditions: combination therapy, HCV patients (Poynard et al. Lancet 1998); cited from earlier work.

Broadly, the IC50 is the concentration that inhibits the measured activity by half. Low readings indicate higher potency, high ones lower potency.

T1 sequence (Q9WMX2 2420-2992): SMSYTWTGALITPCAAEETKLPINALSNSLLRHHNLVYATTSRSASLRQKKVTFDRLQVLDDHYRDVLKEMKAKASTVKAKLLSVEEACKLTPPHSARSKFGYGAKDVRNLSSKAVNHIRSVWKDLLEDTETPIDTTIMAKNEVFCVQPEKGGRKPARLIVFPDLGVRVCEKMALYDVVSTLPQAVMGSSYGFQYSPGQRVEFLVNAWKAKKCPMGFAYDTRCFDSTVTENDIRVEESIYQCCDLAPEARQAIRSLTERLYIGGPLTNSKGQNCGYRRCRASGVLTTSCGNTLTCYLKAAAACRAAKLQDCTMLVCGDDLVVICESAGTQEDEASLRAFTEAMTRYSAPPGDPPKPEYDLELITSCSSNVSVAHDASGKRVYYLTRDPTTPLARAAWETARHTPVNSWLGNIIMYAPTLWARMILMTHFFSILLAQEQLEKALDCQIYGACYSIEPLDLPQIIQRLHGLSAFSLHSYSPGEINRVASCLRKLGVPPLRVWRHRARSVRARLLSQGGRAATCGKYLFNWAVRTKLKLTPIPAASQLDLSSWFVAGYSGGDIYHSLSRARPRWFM

`CNC(=O)c1ccc(-c2ccc(Cl)cc2)c(COc2ccc(-c3nc(/C=C(\C)C(=O)O)cn3C3CCCCC3)cc2)c1` [Example 54, (2E)-3-(2-{4-[(4′-chloro-4-N-methylcarbamoyl-1,1′-biphenyl-2-yl)methoxy]phenyl}-1-cyclohexyl-1H-imidazol-4-yl)-2-methyl-2-propenoic acid] registered an IC50 against HCV NS5B RdRp of 1600 nM. Turning to alpha-interferon and ribavirin, the sustained efficacy with HCV is reported as 40 % of patients.
